Where a name gives a salt, the structure may show the parent alone.
Legend:
Type in all cases: physicochemical
[1] = Solubility of 25HC3S salts after one day at room temperature (HPLC, as free acid); conditions: one day; for Solubility in FaSSGF: Fasted State Simulated Gastric Fluid, pH 1.6, room temperature
Protocol: These fluids were prepared per the instruction listed by Biorelevant (Biorelevant.com). Each buffer concentrate was diluted with water and mixed well. FaSSIF, FeSSIF, FaSSGF powder was added to each buffer and mixed to completely dissolve the powder. Buffers were stored at room temperature and used within 48 hours of preparation.
25HC3S salts were weighed in 8 mL or 4 mL glass vials with Teflon coated screw caps. Aliquots of each solvent were added to each sample and vortexed for about one minute until excess solid remained. Samples were placed on shaker at room temperature with 210 motion per minute shaking.
After one day, samples were pulled and checked if excess solid was present. About 1.5 mL aliquot of each sample was centrifuged at 12000 rpm for 12 to 15 minutes. […] Aliquots of the top clear solution of each centrifuged sample in MeOH, EtOH, IPA and ACN were diluted with diluent (water:MeOH 95:5) and assayed by HPLC. Samples of the salts in aqueous media were assayed by HPLC without dilution.
All solubility sample solutions of 25HC3S salts were determined using HPLC. A linear standard curve was constructed using standards with concentration between 11 μg/mL to 1.5 mg/mL as free acid forcing the curve to origin. Solubilities are reported as mg/mL free acid 25HC3S. Detection limit (LOD) of the HPLC method was calculated as 0.0007 mg/mL.

[2] = Hausner ratio and compressibility index of 25HC3S salts; conditions: for Compressibility Index: Table C3 heads this index in %
Protocol: Although there are some variations in the method of determining the compressibility index and Hausner ratio, the basic procedure is to measure the unsettled apparent volume, VO, and the final tapped volume, Vf, of the powder after tapping the material until no further volume changes occur. The compressibility index and the Hausner ratio are calculated as follows: […]
Both the Hausner ratio and the compressibility index are empirically established. The Hausner ratio and compressibility index are not absolute properties of a material; its value can vary depending on the methodology used to determine them. In this case, since the 14 salts of 25HC3S were measured the same way, the relative values should be accurate.
Table C3, from USP <1174> Powder Flow, describes the flow character of the powder based on the compressibility index and Hausner ratio values.
Powder was carefully poured into a 5 mL glass graduated cylinder (to contain) until it was close to or at 5.0 mL. This initial volume was recorded as Vo. The graduated cylinder was tapped on a hard surface for 200 times and the volume was recorded. The cylinder was tapped 100 times more, and the final volume Vf was recorded. Typically, the volume after 200 taps was identical to after 300 taps, or within 0.1 mL.

[3] = Overall rank order of powder flowability (angle of repose and Hausner ratio); conditions: for Powder flowability, overall (in words): angle of repose and compressibility index/Hausner ratio combined; for Angle of Repose Rank Order / Hausner Ratio Rank Order / Overall Rank Order (Total Score): lower is better flow; for Overall Rank Order (Total Score): sum of both ranks
From the text: Table C5 was generated by adding the relative rank order of the 25HC3S salts for angle of repose and Hausner ratio results, and creating an Over All Rank Order of the salts powder flowability. The salts with the lower overall rank order score had better powder flowability.

[4] = Differential scanning calorimetry (DSC), thermal decomposition / endothermic transition; conditions: DSC, 10° C./min; listed as crystalline 25HC3S calcium
Protocol: Differential scanning calorimetry (DSC) is a thermoanalytical technique where the difference in the amount of heat required to increase the temperature of a sample and reference is measured as a function of temperature. Using this technique, phase transitions of a sample can be measured such as melting point. Decomposition can also be observed by DSC as can dehydration events. In the context of DSC measurements, there is also variability and the term “about” means ±1° C., and such variability is to be understood whether a DSC measurement is prefaced by “about” or not unless specified otherwise. Exemplary methods for collecting DSC data are set forth in Example 21. Thermogravimetric analysis, sometimes referred to as, thermal gravimetric analysis (TGA) is a thermal method of thermal analysis where the mass of a sample is measured as a function of time as the sample temperature changes. For example, when samples disclosed herein are heated and a loss in mass is measured prior to decomposition, this is likely indicative of the loss of water from the sample and may indicate that the sample being heated is a hydrate. Exemplary methods for collecting TGA are set forth in Example 23.
DSC was performed using a Mettler-Toledo DSC3+ differential scanning calorimeter. A tau lag adjustment is performed with indium, tin, and zinc. The temperature and enthalpy are adjusted with octane, phenyl salicylate, indium, tin and zinc. The adjustment is then verified with octane, phenyl salicylate, indium, tin, and zinc. The sample was placed into a hermetically sealed aluminum DSC pan, and the weight was accurately recorded. The pan was then inserted into the DSC cell. A weighed aluminum pan configured as the sample pan was placed on the reference side of the cell. The pan lid was pierced prior to sample analysis. Samples were analyzed from 30° C. to 350° C. or 30° C. to 250° C., both at 10° C./min.

[5] = Dynamic vapor sorption (DVS), hygroscopicity; conditions: DVS
From the text: Dynamic vapor sorption (DVS) measures the uptake of a vapor (typically water) by a sample when exposed to a changing relative humidity. The loss of water can also be measured as relative humidity is decreased. Hygroscopic materials tend to absorb water more readily than non-hygroscopic. In some cases, hydrates absorb water to create higher-order hydrates (e.g., a monohydrate converting to a dihydrate when exposed to increasingly humid conditions). In some salts of the disclosure, moisture is retained upon exposure in a DVS experiment and little or no weight loss is observed upon heating from room temperature. In such experiments, the hygroscopic nature of the salt under study may indicate the formation of a hydrate from an anhydrate. […] Exemplary methods for collecting DVS data are set forth in Example 26.
Dynamic vapor sorption data was collected on a Surface Measurement System DVS Intrinsic instrument. The samples were not dried prior to analysis. Sorption and desorption data were collected over a range from 5% to 95% RH in 10% RH increments under a nitrogen purge. The equilibrium criteria used for the analyses were 0.001 dm/dt weight change in 5 minutes with a minimum step time of 30 minutes and maximum equilibration time of 180 minutes with a 3 minute data logging interval. Data were not corrected for the initial moisture content of the sample.

[6] = room temperature, listed as crystalline 25HC3S calcium
[7] = listed as 25HC3S hydroxyethylammonium
[8] = listed as crystalline 25HC3S hydroxyethylammonium
[9] = room temperature, listed as crystalline 25HC3S meglumine

CC(CCCC(C)(C)O)C1CCC2C3CC=C4CC(OS(=O)(=O)O)CCC4(C)C3CCC12C (centres unmarked) [Salt #2]
Solubility in 5% Dextrose ([1]; room temperature, as free acid, LOD 0.0007 mg/mL, 1440 min): 5 µg/mL
Solubility in FaSSGF (in words) [1, 6]: low solubility
Solubility in FaSSIF (in words) ([1]; FaSSIF, room temperature, listed as crystalline 25HC3S calcium): relatively high solubility
Solubility in saline / 0.9% sodium chloride (in words) [1, 6]: low solubility
Compressibility Index ([2]; listed as 25HC3S calcium): 36
Hausner Ratio ([2]; listed as 25HC3S calcium): 1.56
Powder flowability, overall (in words) ([3]; listed as calcium): poorer flowability
Angle of Repose Rank Order ([3]; listed as 25HC3S calcium): 11
Hausner Ratio Rank Order ([3]; listed as 25HC3S calcium): 11
Overall Rank Order (Total Score) ([3]; listed as 25HC3S calcium): 22
Decomposition temperature (DSC) [4]: about 130 °C

CC(CCCC(C)(C)O)C1CCC2C3CC=C4CC(OS(=O)(=O)O)CCC4(C)C3CCC12C (centres unmarked) [Salt #5]
solubility at 24 h ([1]; 0.9% nacl, room temperature, as free acid, ND = not detected, detection limit 0.7 μg/mL, read-out: Solubility in 0.9% NaCl): 2 µg/mL
Solubility in 5% Dextrose ([1]; room temperature, as free acid, ND = not detected, detection limit 0.7 μg/mL, 1440 min, listed as 25HC3S hydroxyethylammonium): 45 µg/mL
Solubility in FaSSGF (in words) ([1]; room temperature, listed as crystalline 25HC3S hydroxyethylammonium): low solubility
Solubility in FaSSIF ([1]; FaSSIF, room temperature, as free acid, 1440 min, listed as 25HC3S hydroxyethylammonium): 107 µg/mL
Solubility in FaSSGF ([1]; as free acid, LOD 0.0007 mg/mL): no solubilized drug was detected
Solubility in FeSSIF ([1]; FeSSIF, room temperature, as free acid, 1440 min, listed as 25HC3S hydroxyethylammonium): 718 µg/mL
Solubility in methanol (in words) ([1]; MeOH, room temperature): did not reach saturation
Solubility in ACN ([1]; acetonitrile, room temperature, as free acid, 1440 min, listed as 25HC3S hydroxyethylammonium): 200 µg/mL
Solubility in EtOH ([1]; ethanol, room temperature, as free acid, ≥ = did not reach saturation, 1440 min, listed as 25HC3S hydroxyethylammonium): ≥22000 µg/mL
Solubility in IPA ([1]; isopropyl alcohol, room temperature, as free acid, 1440 min, listed as 25HC3S hydroxyethylammonium): 3700 µg/mL
Solubility in MeOH ([1]; methanol, room temperature, as free acid, ≥ = did not reach saturation, 1440 min, listed as 25HC3S hydroxyethylammonium): ≥47000 µg/mL
Solubility in H2O ([1]; water, room temperature, as free acid, ND = not detected, detection limit 0.7 μg/mL, 1440 min, listed as 25HC3S hydroxyethylammonium): 43 µg/mL
Compressibility Index [2, 7]: 18
Hausner Ratio [2, 7]: 1.22
Powder flowability, overall (in words) [3, 8]: relatively good flowability
Powder flowability, overall (in words) ([3]; listed as hydroxyethylammonium): top three
Angle of Repose Rank Order [3, 7]: 1
Hausner Ratio Rank Order [3, 7]: 1
Overall Rank Order (Total Score) [3, 7]: 2
Hygroscopicity (in words) [5, 8]: hygroscopic

CC(CCCC(C)(C)O)C1CCC2C3CC=C4CC(OS(=O)(=O)O)CCC4(C)C3CCC12C (centres unmarked) [Salt #7]
Solubility in FaSSGF (in words) ([1]; room temperature): high solubility
Solubility in FaSSGF (in words) [1, 9]: relatively high solubility
Solubility in FaSSIF (in words) ([1]; FaSSIF, room temperature): high solubility
Solubility in FaSSGF ([1]; as free acid, LOD 0.0007 mg/mL, 1440 min): 48 µg/mL
Solubility in FeSSIF (in words) ([1]; FeSSIF, room temperature): high solubility
Solubility in saline / 0.9% sodium chloride (in words) [1, 9]: low solubility
Compressibility Index ([2]; listed as 25HC3S meglumine): 36
Hausner Ratio ([2]; listed as 25HC3S meglumine): 1.56
Powder flowability, overall (in words) ([3]; listed as meglumine): next group
Angle of Repose Rank Order ([3]; listed as 25HC3S meglumine): 5
Hausner Ratio Rank Order ([3]; listed as 25HC3S meglumine): 12
Overall Rank Order (Total Score) ([3]; listed as 25HC3S meglumine): 17
Water uptake, plateau above 35% RH ([5]; stable plateau above 35% relative humidity): about 3%

Source: patent US20260317367A1, “SALTS INCLUDING CRYSTALLINE SALTS OF 25-HYDROXY-CHOLEST-5-EN-3-SULFATE AND METHODS FOR PREPARING SAME” (Durect Corporation, priority 2022, published 2026)
